Patent US20050249697A1, “Compositions and methods for the inhibition of bone growth and resorption” (priority 2003, published 2005)
Read-outs that look alike come from different tables or passages of the source.

Key:
[1] = Plasma diflunisal in rats after subcutaneous polydiflunisal microspheres or oral diflunisal; format: in vivo; settings: single oral dose
Source text: Processes for making nanoparticle formulations are also known in the art, and need not be fully described in this patent. The surface eroding property of polymers such as polydiflunisal makes for solid, non-porous particles, e.g. nano- and micro-spheres, useful for sustained drug delivery, and their release duration may be controlled by varying particle diameter, e.g. larger microparticles biodegrade more slowly than smaller ones. Nano- and microparticles for pharmaceutical formulations may be designed to deliver an agent(s) or compound(s) incorporated into the monomer, oligomer or polymer backbone and optionally an agent(s) blended, appended to, or dispersed in the polymer. […] Microparticle formulations of about 1, 2, 5, 7.5, 10, 25, 50 to about 10, 15, 30, 50, 75, 100, 250 μm are suitable for use in a pharmaceutical, veterinary or other type of formulations. Similarly, nanoparticle formulations may be administered for various applications, having a particle size about 1, 2, 5, 10 to about 15, 20, 30, 50, 100, 250, 500 nm, or various ranges between any two of these values. […]

[2] = cited from earlier work
[3] = cited from earlier work; for Plasma Levels: Clinical Use, Anti-Inflammatory Effectiveness; for Plasma half-life: in vivo
[4] = in vivo; cited from earlier work
[5] = tested on: Long Bone Critical Size Defect; test: Long bone critical size defect model: bone formation and resorption; format: in vivo, Sprague Dawley retired breeder male rats; settings: implant of polymer microspheres containing ≧0.5 g salicylic acid/cm^3 in a femur
Source text: Nineteen (19) Sprague Dawley retired breeder male rats were employed in this experiment. In each animal, a 5 mm mid-shaft defect was created using an oscillating saw. The limbs were then stabilized using a custom 4-hole polymer plate and screws. In two groups of 6 rats each, the defects were filled with either the homopolymer or the copolymer. The remaining 7 rats had their defects filled with a collagen sponge to serve as controls. An equal number of animals from each group was sacrificed at 4 and 8 weeks post surgery. The only exception was that four control rats were used in the 8-week group. The defect sites were radiographed using a Hewlett-Packard Faxitron model 43804 and high resolution mammography film every 2 weeks until sacrifice. At term, the limbs were collected and prepared for non-decalcified histology. Mid-sagittal ground sections were prepared and stained using Sanderson's Rapid Bone Stain and Stevenel's Blue. New bone formed between inner-most fixation screws was measured on 2 slides per animal and averaged. Bone resorption, or loss, was also measured by approximating the original contours of the cortices, and measuring the difference in area relative to the remaining bone.

[6] = cited from earlier work; remark: listed apart in the source
[7] = cited from earlier work; remark: listed apart in the source

SMILES: O=C(O)c1cc(-c2ccc(F)cc2F)ccc1O [Diflunisal, 5-(2,4-difluoro-phenyl) salicylic acid]
- plasma drug level after dosing [1]: declined rapidly
- Water Solubility [2]: Very Low
- Plasma Levels [3]: 50 to 190 µg/mL
- No. Metabolites ([3]; Metabolism): 2
- Where Metabolized ([3]; Metabolism): Liver, Intestine
- Plasma half-life [3]: 8 to 12 h
- LD50 [4]: 439 mg/kg

SMILES: O=C(O)c1ccccc1O [Salicylic Acid]
- effect of local delivery at site of bone defect or injury [5]: prevents new bone growth, degradation and resorption
- Water Solubility [2]: High
- Plasma Levels [3]: 150 to 300 µg/mL
- Plasma half-life [3]: 2.5 h

SMILES: O=C(O)CCCCCCCCC(=O)O [Sebacic Acid]
- Rat Oral LD50 ([6]; oral): 14,470 mg/kg

SMILES: O=C(O)CCC(=O)O [Succinic Acid]
- Rat Oral LD50 ([6]; in vivo, po): 8,530 mg/kg

SMILES: CN1CC[C@]23c4c5ccc(O)c4O[C@H]2[C@@H](O)C=C[C@H]3[C@H]1C5 [morphine]
- pain relief ([7]; 1 mg injected into chronically-inflamed gum tissue): profound pain relief
- pain relief ([7]; intra-articular injection of 3 mg in RA patients): pain relief similar to that of 4 mg dexamethasone
